In brackets after ≈: the same amount, converted by molar mass.

Experimental findings from ChEMBL document CHEMBL1142818, “Identification of heteroarylenamines as a new class of antituberculosis lead molecules” (Bioorg Med Chem Lett, 2005) are described below.

In experiment [1] the test system is Vero. Description: Selectivity ratio for IC50 of VERO cells to that of MIC of Mycobacterium tuberculosis H37Rv. The experiment is classed as functional, Chlorocebus sabaeus.
For experiment [2], the system named is Mycobacterium tuberculosis. Description: Minimum inhibitory concentration against Mycobacterium tuberculosis H37Rv pFPCA1 in green fluorescent protein microplate assay. In kind it is functional.
Experiment [3] concerns Vero. Description: Inhibitory concentration required to produce cytotoxicity against VERO cells. In kind it is functional, cell-based. Conditions: Chlorocebus sabaeus.
For experiment [4], the system named is Vero. Description: Inhibitory concentration required to produce cytotoxicity against VERO cells; d = Poor solubility prevented determination of activity. The experiment is classed as functional, cell-based, Chlorocebus sabaeus.
The test system of experiment [5] is Vero. Description: Selectivity ratio for IC50 of VERO cells to that of MIC of Mycobacterium tuberculosis H37Rv; d = Poor solubility prevented determination of activity. The experiment is classed as functional, cell-based. The note with it: Chlorocebus sabaeus.
Experiment [6] deals with Mycobacterium tuberculosis. Description: Minimum inhibitory concentration against Mycobacterium tuberculosis H37Rv; Range 0.125-0.25 ug/mL. In kind it is functional.

Turning to `CN(C)/C=C/c1c2c(nc3ccccc13)C(=O)c1cccnc1C2=O`, the Selectivity in experiment [1] was below 0.08. Moreover, the minimum inhibitory concentration (MIC) in experiment [2] was 3.13 µg/mL (≈ 9.5 µM). The concentration for half-maximal inhibition (IC50) in experiment [3] was below 0.26 µg/mL.

Consider `Cc1c2c(nc3ccccc13)C(=O)c1ccccc1C2=O`, for which the 50% inhibitory concentration (IC50) result in experiment [4] is listed as “Poor solubility”. In experiment [2], the minimum inhibitory concentration (MIC) came out at 1.56 µg/mL (≈ 5.71 µM). For the same molecule, the Selectivity entry in experiment [5] is “Poor solubility”.

Regarding `CN(C)CCc1c2c(nc3ccccc13)C(=O)c1ccccc1C2=O`, the Selectivity in experiment [1] turned out to be 4.5. The molecule also yielded an MIC in experiment [2] of 0.78 µg/mL (≈ 2.36 µM). Besides, the midpoint of inhibition in experiment [3], the IC50, lay at 3.5 µg/mL (≈ 10.6 µM).

In turn, `NNC(=O)c1ccncc1` [ISONIAZID] returned an MIC in experiment [2] below 0.2 µg/mL.

On to `O=C1c2cccnc2-c2nccc3c2c1nc1ccccc13` [ASCIDIDEMIN], for which, in experiment [1], the Selectivity was below 0.4. Besides, the minimal inhibitory concentration (MIC) in experiment [2] was 0.1 µg/mL (≈ 0.353 µM). The molecule further came in with an IC50 in experiment [3] below 0.04 µg/mL.

`CC[C@@H](CO)NCCN[C@@H](CC)CO` [ETHAMBUTOL] had a minimal inhibitory concentration (MIC) in experiment [2] below 0.2 µg/mL.

As for `C=C(C=O)c1c2c(nc3ccccc13)C(=O)c1ccccc1C2=O`, the concentration for half-maximal inhibition (IC50) result in experiment [4] is reported as “Poor solubility”. In experiment [2], this molecule displayed an MIC of 0.2 µg/mL (≈ 0.638 µM). In addition, the Selectivity result in experiment [5] is “Poor solubility”.

With `Cc1c2c(nc3ccccc13)C(=O)c1cccnc1C2=O`, the IC50 entry in experiment [4] was “Poor solubility”. In experiment [2], this molecule showed an MIC of 6.25 µg/mL (≈ 22.8 µM). In addition, the Selectivity entry in experiment [5] was “Poor solubility”.

For the molecule `O=C(O)c1cn(C2CC2)c2cc(N3CCNCC3)c(F)cc2c1=O` [CIPROFLOXACIN], in experiment [2], the minimum inhibitory concentration (MIC) is below 0.2 µg/mL.

`CO[C@H]1/C=C/O[C@@]2(C)Oc3c(C)c(O)c4c(O)c(c(/C=N/N5CCN(C)CC5)c(O)c4c3C2=O)NC(=O)/C(C)=C\C=C\[C@H](C)[C@H](O)[C@@H](C)[C@@H](O)[C@@H](C)[C@H](OC(C)=O)[C@@H]1C` [RIFAMPIN] displayed a minimum inhibitory concentration (MIC) in experiment [6] of 0.25 µg/mL (≈ 0.304 µM). Further, the Selectivity in experiment [1] is listed as 400. Half-maximal inhibition in experiment [3] (IC50) was put at 100 µg/mL (≈ 122 µM).

Take `CN(C)CCc1c2c(nc3ccccc13)C(=O)c1cccnc1C2=O`: the Selectivity in experiment [1] came out at 0.45. The molecule also yielded a minimum inhibitory concentration (MIC) in experiment [2] of 3.13 µg/mL (≈ 9.45 µM). This molecule displayed an IC50 in experiment [3] of 1.4 µg/mL (≈ 4.22 µM).

As for `CN(C)/C=C/c1ccnc2c1C(=O)c1ccccc1C2=O`, in experiment [1], the Selectivity stood at 5.8. Further, in experiment [2], 1.56 µg/mL (≈ 5.61 µM) was the least that counted as inhibitory (MIC). In experiment [3], this molecule came in with a half-inhibitory concentration (IC50) of 9.1 µg/mL (≈ 32.7 µM).

For `CN(C)/C=C/c1cccc2nc3ccccc3cc12`, the minimal inhibitory concentration (MIC) in experiment [2] worked out at 21 µg/mL (≈ 84.6 µM).

As for `CN(C)/C=C/c1c2c(nc3ccccc13)C(=O)c1ccccc1C2=O`, the Selectivity in experiment [1] came to 15.1. Further, in experiment [2], the MIC was 0.39 µg/mL (≈ 1.19 µM). In experiment [3], this molecule yielded a concentration for half-maximal inhibition (IC50) of 5.9 µg/mL (≈ 18 µM).

`NC[C@H]1O[C@H](O[C@H]2[C@H](O)[C@@H](O[C@H]3O[C@H](CO)[C@@H](O)[C@H](N)[C@H]3O)[C@H](N)C[C@@H]2N)[C@H](O)[C@@H](O)[C@@H]1O` [KANAMYCIN]: the MIC in experiment [2] was below 0.2 µg/mL.
